Test results published in PubChem BioAssay (NCI).
Values joined by “and” are separate entries in the source; they are usually repeats but may differ in a detail not shown here. Equal entries are not always repeated.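 Protocol summary: plate cells (96-well), add compound at 5 concentrations, incubate 48 h, interpolate endpoints linearly. GI50: concentration for 50% inhibition of growth. At the TGI there is no net growth.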

Columns and labels:
Test in all cases: inhibition of tumour cell growth, NCI panel, 48 h
SF-539 CNS = system: SF-539 CNS
HS 578T breast = system: HS 578T breast
OVCAR-4 ovarian = system: OVCAR-4 ovarian
SK-MEL-28 melanoma = system: SK-MEL-28 melanoma
COLO 205 colon = system: COLO 205 colon
EKVX NSCLC = system: EKVX NSCLC
MDA-MB-435 = system: MDA-MB-435
NCI-H460 lung = system: NCI-H460 lung
ACHN renal = system: ACHN renal
PC-3 prostate = system: PC-3 prostate

Structure (SMILES) | GI50 (SF-539 CNS) [µM] | TGI (SF-539 CNS) [µM] | GI50 (HS 578T breast) [µM] | TGI (HS 578T breast) [µM] | GI50 (OVCAR-4 ovarian) [µM] | TGI (OVCAR-4 ovarian) [µM] | GI50 (SK-MEL-28 melanoma) [µM] | TGI (SK-MEL-28 melanoma) [µM] | GI50 (COLO 205 colon) [µM] | TGI (COLO 205 colon) [µM] | GI50 (EKVX NSCLC) | TGI (EKVX NSCLC) [µM] | GI50 (MDA-MB-435) [µM] | TGI (MDA-MB-435) [µM] | GI50 (NCI-H460 lung) [µM] | TGI (NCI-H460 lung) [µM] | GI50 (ACHN renal) [µM] | TGI (ACHN renal) [µM] | GI50 (PC-3 prostate) [µM] | TGI (PC-3 prostate) [µM]
O=C(Nc1ccc(Oc2ccc3nc(NC(=O)c4ccccc4)[nH]c3c2)cc1)Nc1cc(C(F)(F)F)ccc1F | 1.81 | 18.5 | 1.07 | 11.6 | 0.678 | 2.71 | 1.61 | 12.9 | 1.12 | 6.7 | 0.969 µM | > 25 | 0.709 | 2.94 | 1.59 | > 22.4 | 1.84 | > 25 | 0.624 | 2.76
COc1ccc2c(c1)C(=O)c1c-2c(Nc2ccc(C(C)=O)cc2)nc2ccccc12 | 15.5 | 44.5 | 8.39 | > 100 | 58.3 | > 100 | 52.2 | > 100 | > 100 | > 100 | 25.2 µM | > 100 | > 100 | > 100 | 85.1 | > 100 | 53.5 | > 100 | 34.3 | > 100
c1ccc(-c2cc(C3CO3)c3ccccc3n2)cc1 (configuration not stated) | – | 56.7 | – | 83.9 | – | 37.2 | – | > 100 | – | 37.4 | – | 34.1 | – | 35.5 | – | 39.1 | – | 32.8 | – | 41.2
Cc1cc(=O)[nH]o1 | – | > 100 | – | > 100 | – | > 100 | – | > 100 | – | > 100 | – | > 100 | – | > 100 | – | > 100 | – | > 100 | – | > 100
CN(C)c1ccc(/C=C(\C#N)c2nc3ccccc3n2C)cc1 | 2.24 | 6.94 | 2.84 | > 26.5 | 4.22 | > 21.9 | 8.8 | > 78.2 | 1.63 | 9.26 | 8.65 µM | > 100 | 0.251 | 3.13 | 3.2 | 17.9 | 11.6 | > 100 | 3.91 | > 48.8
O=C1C2=Nc3ccccc3C(O)N2c2ccccc21 (configuration not stated) | – | > 100 | – | > 100 | – | > 100 | – | > 68.7 | – | > 100 | – | > 100 | – | 6.29 | – | > 100 | – | > 100 | – | > 100
O=C(c1ccco1)c1nc2cc(F)ccc2[n+]([O-])c1C(F)(F)F | > 100 | > 100 | 97.4 | > 100 | 21.5 | 50.5 | 29.4 | 95.4 | 16 | 32.7 | 18.6 µM | 39.9 | 19.2 | 44 | 41.8 | > 100 | 27.6 | > 100 | 35.3 | > 100
C/C(=N\N=C(\[Se])N1CCN(c2ccccn2)CC1)c1ccccn1 | 0.407 | 12.2 | – | 68.2 | 0.00554 | 3.31 | – | 22.7 | 0.00449 | 0.0358 | 0.0937 µM and 0.559 µM | 9.7 | 0.0967 | 20.3 | – | 16 | 0.00847 | 16.9 | 0.334 | 14.2
N#Cc1ccc(N2Cc3ccccc3OC3=C2C(=O)c2c(O)ccc(O)c2C3=O)cc1 | 0.564 | 1.38 | 1.16 | 7.07 | 0.216 | 0.793 | 0.216 | 0.62 | 0.0907 | 0.268 | 0.818 µM | 4.17 | 0.235 | 0.579 | 0.897 | 4.23 | 0.0547 | 0.16 | 0.357 | 1.29
O=c1cc(N2CCNCC2)oc2c(-c3ccccc3)cccc12 | 68 | > 100 | 9.75 | > 100 | 52.7 | > 100 | 39.6 | > 100 | 11.3 | 27.8 | 19.8 µM | > 100 | 20.9 | 98.8 | 48.7 | > 100 | 34.1 | > 100 | 32 | > 100
CCN1C(=O)NC(=O)C(C)(N2C(=O)c3c(F)c(F)c(F)c(F)c3C2=O)C1=O (configuration not stated) | 2.89 | 8.02 | 3.95 | 25.1 | 2.44 | 6.31 | 2.25 | 5.82 | 2.13 | 4.47 | 5.76 µM | 18 | 2.96 | 10.6 | 4.95 | 10.6 | 2.03 | 3.94 | 3.09 | 10.5
CCOC(=O)c1c2c(n(Cc3ccccc3)c1C)-c1ccccc1C(=O)C2=O | 18.7 | 34.4 | 2.93 | 12.4 | 10.9 | 25.4 | 16.4 | 41.4 | 15.6 | 30.6 | 11.9 µM | 29.2 | 29 | 87 | 6.31 | 21.5 | 12.9 | 30.2 | 6.83 | 19.8
